Reference: patent US20120145955A1, “COMPOSITION OF HCFO-1233zd AND POLYOL BLENDS FOR USE IN POLYURETHANE FOAM” (Arkema Inc., priority 2009, published 2012)
Where two headings read alike, the source gives them in different places.

Key:
[1] = Solubility experiments: vapor pressure of blowing agent in polyol in a pressure vessel; assay type: physicochemical
Protocol: The vapor pressure of a foam blowing agent in polyurethane materials was evaluated in an experimental apparatus consisting of a pressure vessel with magnetic stirring, a pressure transducer and a temperature transducer. The temperature inside the vessel was controlled within 0.1° C. and the pressure controlled to within 0.1%.
Into the pressure vessel (volume about 100 ml), 50 g of polyol was loaded. The vessel was then placed under vacuum to remove air. The change of pressure in the metal cylinder was monitored to ensure that there were no leaks. The blowing agent was introduced into the vessel by the use of a specially designed gas syringe. The amount of blowing agent loaded was verified by measuring the weight of the syringe before and after introduction. The temperature of the vessel was maintained at 50° C. (above the boiling point of the blowing agents being tested) and the speed of the shaker was maintained at 300 rpm. The vapor pressure of the blowing agent was recorded as a function of the time. Sufficient time was allowed for the system to reach equilibrium. After reaching equilibrium, the amount of blowing agent dissolved in the polyol was calculated as the difference between the added blowing agent […] and the blowing agent present in the gas phase of the vessel.
Then another small amount of blowing agent was added in the vessel. The procedure was repeated several times until the pressure in the vessel was equal to the liquid-gas equilibrium vapor pressure of the blowing agent at this temperature (maximum attainable pressure at temperatures below the critical temperature of the blowing agent).

[2] = AMES testing (genotoxicity); assay type: cell-based; conditions: trans isomer of HCFO-1233zd compared with the cis isomer
[3] = known to the people skilled in the art; cited from earlier work

## FC(F)(F)/C=C/Cl [HCFO-1233zd, trifluoro-monochloropropenes]
[1]; different ratios of polyether polyols and polyester polyols, benchmarked against HCFC141b and HFC245fa
  solubility in polyols: falls in between HFC245fa and HCFC141b

## FC(F)(F)/C=C/Cl [E-HCFO-1233zd]
[2]
  genotoxicity in AMES testing: significantly lower genotoxicity
[1]; compared with HCFC141b and HFC245fa, 50° C.
  area between the polyether polyol and polyester polyol curves (range of solubilities): significantly larger
[1]; polyether polyol and polyester polyol, 50° C.
  solubility relative to current blowing agents: solubility comparable to current blowing agents
[1]; polyether polyol and polyester polyol, 50° C., FIG. 1
  solubility curves (vapor pressure versus part of blowing agent per 100 part of polyol by weight): between those for HFC245fa and HCFC141b

## FC(F)CC(F)(F)F [HFC245fa]
[3]
  solubility in polyols: relatively less soluble
